Measured values reported in patent publication US8889668B2, “Oxadiazole diaryl compounds” (Merck Serono SA, priority 2007, dated 2014).

What follows are compounds tested against S1P1 (Homo sapiens (Human), UniProt P21453) (assay: 35S-GTPγS binding, membranes from CHO cells expressing S1P1). Details: 60 min 30° C., read-out: S1P1 GTPgS EC50.
Chain of S1P1 (P21453 whole entry, species assumed): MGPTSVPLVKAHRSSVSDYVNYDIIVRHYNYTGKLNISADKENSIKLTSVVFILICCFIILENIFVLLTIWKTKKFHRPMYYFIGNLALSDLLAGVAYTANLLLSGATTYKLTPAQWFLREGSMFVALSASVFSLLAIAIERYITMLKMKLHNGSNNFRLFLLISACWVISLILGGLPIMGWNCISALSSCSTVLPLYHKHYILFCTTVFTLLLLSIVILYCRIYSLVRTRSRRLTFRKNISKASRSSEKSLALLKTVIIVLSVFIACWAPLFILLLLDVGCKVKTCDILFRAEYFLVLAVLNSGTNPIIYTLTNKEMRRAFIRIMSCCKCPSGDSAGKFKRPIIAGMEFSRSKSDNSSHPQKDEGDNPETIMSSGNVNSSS
Type: biochemical
In the case of CN(c1ccc(-c2nc(-c3ccccc3OC(F)(F)F)no2)cc1[N+](=O)[O-])C1CCCCC1 [Compound I5, N-cyclohexyl-N-methyl-2-nitro-4-{3-[2-(trifluoromethoxy)phenyl]-1,2,4-oxadiazol-5-yl}aniline], the EC50 is reported as 0.589 µM.
COc1ccccc1-c1noc(-c2ccc(N3CCOCC3)c(N)c2)n1 [Compound I6, 5-[3-(2-methoxyphenyl)-1,2,4-oxadiazol-5-yl]-2-morpholin-4-ylaniline] showed an EC50 of 0.712 µM.
Compound CCOc1ccccc1-c1noc(-c2ccc(N3CCCCC3)c([N+](=O)[O-])c2)n1 [Compound I7, 1-{4-[3-(2-ethoxyphenyl)-1,2,4-oxadiazol-5-yl]-2-nitrophenyl}piperidine] has an EC50 of 0.254 µM.
O=[N+]([O-])c1cc(-c2nc(-c3ccccc3OC(F)(F)F)no2)ccc1N1CCCC(F)(F)C1 [Compound I11, 3,3-difluoro-1-(2-nitro-4-{3-[2-(trifluoromethoxy)phenyl]-1,2,4-oxadiazol-5-yl}phenyl)piperidine] showed an EC50 of 0.08 µM.
Compound COc1ccccc1-c1noc(-c2ccc(N3CCCC3)c([N+](=O)[O-])c2)n1 [Compound I13, 3-(2-methoxyphenyl)-5-(3-nitro-4-pyrrolidin-1-ylphenyl)-1,2,4-oxadiazole] has an EC50 of 0.132 µM.
Work on O=[N+]([O-])c1cc(-c2nc(-c3ccccc3OC(F)(F)F)no2)ccc1N1CCCC1 [Compound I14, 5-(3-nitro-4-pyrrolidin-1-ylphenyl)-3-[2-(trifluoromethoxy)phenyl]-1,2,4-oxadiazole] yielded an EC50 of 0.428 µM.
For O=[N+]([O-])c1cc(-c2nc(-c3ccccc3OC(F)(F)F)no2)ccc1N1CCCCCC1 [Compound I15, 1-(2-nitro-4-{3-[2-(trifluoromethoxy)phenyl]-1,2,4-oxadiazol-5-yl}phenyl)azepane], the EC50 was 1.13 µM.
For COc1ccccc1-c1noc(-c2ccc(N3CCCCCC3)c([N+](=O)[O-])c2)n1 [Compound I16, 1-{4-[3-(2-methoxyphenyl)-1,2,4-oxadiazol-5-yl]-2-nitrophenyl}azepane], the EC50 was 0.228 µM.
Compound O=[N+]([O-])c1cc(-c2nc(-c3ccccc3OC(F)(F)F)no2)ccc1N1CCOCC1 [Compound I17, 4-(2-nitro-4-{3-[2-(trifluoromethoxy)phenyl]-1,2,4-oxadiazol-5-yl}phenyl)morpholine] has an EC50 of 0.135 µM.
Work on COc1ccccc1-c1noc(-c2ccc(-c3ccccc3C(F)(F)F)c(C)c2)n1 [Compound I24, 3-(2-methoxyphenyl)-5-[2-methyl-2′-(trifluoromethyl)biphenyl-4-yl]-1,2,4-oxadiazole] yielded an EC50 of 0.057 µM.
With CC(C)Cc1ccc(-c2nc(-c3ccccc3OC(F)(F)F)no2)cc1 [Compound I30, 5-(4-isobutylphenyl)-3-[2-(trifluoromethoxy)phenyl]-1,2,4-oxadiazole] the EC50 was 0.064 µM.
O=[N+]([O-])c1cc(-c2nc(-c3ccccc3OC(F)(F)F)no2)ccc1N1CCCCC1 [Compound I31, 1-(2-nitro-4-{3-[2-(trifluoromethoxy)phenyl]-1,2,4-oxadiazol-5-yl}phenyl)piperidine] was tested, and the EC50 was 0.058 µM.
With COc1ccccc1-c1noc(-c2ccc(N3CCCC(F)(F)C3)c(N(S(C)(=O)=O)S(C)(=O)=O)c2)n1 [Compound I37, N-dimethanesulfonyl-2-(3,3-difluoropiperidin-1-yl)-5-{3-[2-(methoxy)phenyl]-1,2,4-oxadiazol-5-yl}aniline] the EC50 was 0.921 µM.
CC1CCC(C)N1c1ccc(-c2nc(-c3ccccc3OC(F)(F)F)no2)cc1[N+](=O)[O-] (stereo not shown) [Compound I38, 5-[4-(2,5-dimethylpyrrolidin-1-yl)-3-nitrophenyl]-3-[2-(trifluoromethoxy)phenyl]-1,2,4-oxadiazole] was tested, and the EC50 was 4.47 µM.
With COc1ccc(F)cc1-c1noc(-c2ccc(N3C(C)CCC3C)c([N+](=O)[O-])c2)n1 (stereo not shown) [Compound I39, 5-[4-(2,5-dimethylpyrrolidin-1-yl)-3-nitrophenyl]-3-(5-fluoro-2-methoxyphenyl)-1,2,4-oxadiazole] the EC50 was 0.267 µM.
For COc1ccccc1-c1noc(-c2ccc(-c3ccccc3OC)c(C)c2)n1 [Compound I40, 5-(2′-methoxy-2-methylbiphenyl-4-yl)-3-(2-methoxyphenyl)-1,2,4-oxadiazole], the EC50 was 0.027 µM.
Work on Nc1cc(-c2nc(-c3ccccc3OC(F)(F)F)no2)ccc1N1CCCC(F)(F)C1 [Compound I41, 2-(3,3-difluoropiperidin-1-yl)-5-{3-[2-(trifluoromethoxy)phenyl]-1,2,4-oxadiazol-5-yl}aniline] yielded an EC50 of 0.116 µM.
COc1ccccc1-c1noc(-c2ccc(N3C(C)CCC3C)c([N+](=O)[O-])c2)n1 (stereo not shown) [Compound I42, 5-[4-(2,5-dimethylpyrrolidin-1-yl)-3-nitrophenyl]-3-(2-methoxyphenyl)-1,2,4-oxadiazole] gave an EC50 of 1.25 µM.
With CS(=O)(=O)Nc1cc(-c2nc(-c3ccccc3OC(F)(F)F)no2)ccc1N1CCCC(F)(F)C1 [Compound I43, N-(2-(3,3-difluoropiperidin-1-yl)-5-{3-[2-(trifluoromethoxy)phenyl]-1,2,4-oxadiazol-5-yl}phenyl)methanesulfonamide] the EC50 was 0.039 µM.
Compound COc1ccccc1-c1noc(-c2ccc(-c3ccccc3C)c(OC)c2)n1 [Compound I46, 5-(2-methoxy-2′-methylbiphenyl-4-yl)-3-(2-methoxyphenyl)-1,2,4-oxadiazole] has an EC50 of 0.033 µM.
COc1ccc(-c2ccc(-c3nc(-c4ccccc4OC)no3)cc2C)c(OC)c1 [Compound I47, 5-(2′,4′-dimethoxy-2-methylbiphenyl-4-yl)-3-(2-methoxyphenyl)-1,2,4-oxadiazole] gave an EC50 of 1.2 µM.
Cc1cc(-c2nc(-c3ccccc3OC(F)(F)F)no2)ccc1-c1c(C)noc1C [Compound I49, 5-[4-(3,5-dimethylisoxazol-4-yl)-3-methylphenyl]-3-[2-(trifluoromethoxy)phenyl]-1,2,4-oxadiazole] gave an EC50 of 0.191 µM.
COc1ccccc1-c1noc(-c2ccc(-c3c(C)noc3C)c(C)c2)n1 [Compound I50, 5-[4-(3,5-dimethylisoxazol-4-yl)-3-methylphenyl]-3-(2-methoxyphenyl)-1,2,4-oxadiazole] was tested, and the EC50 was 0.172 µM.
COCCN(CCOC)c1ccc(-c2nc(-c3cc(F)ccc3OC)no2)cc1[N+](=O)[O-] [Compound I51, 4-[3-(5-fluoro-2-methoxyphenyl)-1,2,4-oxadiazol-5-yl]-N,N-bis(2-methoxyethyl)-2-nitroaniline] was tested, and the EC50 was 0.085 µM.
COCCN(CCOC)c1ccc(-c2nc(-c3ccccc3OC)no2)cc1[N+](=O)[O-] [Compound I52, N,N-bis(2-methoxyethyl)-4-[3-(2-methoxyphenyl)-1,2,4-oxadiazol-5-yl]-2-nitroaniline] gave an EC50 of 0.295 µM.
COc1ccc(-c2ccc(-c3nc(-c4ccccc4OC(F)(F)F)no3)cc2C)c(OC)c1 [Compound I56, 5-(2′,4′-dimethoxy-2-methylbiphenyl-4-yl)-3-[2-(trifluoromethoxy)phenyl]-1,2,4-oxadiazole] showed an EC50 of 0.302 µM.
For Cc1cc(-c2nc(-c3ccccc3OC(F)(F)F)no2)ccc1N1CCCCC1 [Compound I58, 1-(2-methyl-4-{3-[2-(trifluoromethoxy)phenyl]-1,2,4-oxadiazol-5-yl}phenyl)piperidine], the EC50 was 0.039 µM.
Compound COc1ccccc1-c1noc(-c2ccc(N3CCCCC3)c(C(F)(F)F)c2)n1 [Compound I59, 1-[4-[3-(2-methoxyphenyl)-1,2,4-oxadiazol-5-yl]-2-(trifluoromethyl)phenyl]piperidine] has an EC50 of 0.021 µM.
With COc1ccccc1-c1noc(-c2ccc(N3CCOCC3)c(C)c2)n1 [Compound I64, 4-{4-[3-(2-methoxyphenyl)-1,2,4-oxadiazol-5-yl]-2-methylphenyl}morpholine] the EC50 was 0.098 µM.
With Cc1cc(-c2nc(-c3ccccc3OC(F)(F)F)no2)ccc1N1CCOCC1 [Compound I65, 4-(2-methyl-4-{3-[2-(trifluoromethoxy)phenyl]-1,2,4-oxadiazol-5-yl}phenyl)morpholine] the EC50 was 0.13 µM.
In the case of COc1ccc(F)cc1-c1noc(-c2ccc(N3CCOCC3)c(C)c2)n1 [Compound I66, 4-{4-[3-(5-fluoro-2-methoxyphenyl)-1,2,4-oxadiazol-5-yl]-2-methylphenyl}morpholine], the EC50 is reported as 0.028 µM.
COc1ccccc1-c1noc(-c2ccc(N3CCCCC3)c(C)c2)n1 [Compound I67, 1-{4-[3-(2-methoxyphenyl)-1,2,4-oxadiazol-5-yl]-2-methylphenyl}piperidine] was tested, and the EC50 was 0.024 µM.
Work on COc1ccc(F)cc1-c1noc(-c2ccc(N3CCCCC3)c(C)c2)n1 [Compound I68, 1-{4-[3-(5-fluoro-2-methoxyphenyl)-1,2,4-oxadiazol-5-yl]-2-methylphenyl}piperidine] yielded an EC50 of 0.01 µM.
Work on COc1ccc(F)cc1-c1noc(-c2ccc(-c3cccnc3C)c(C)c2)n1 [Compound I73, 3-{4-[3-(5-fluoro-2-methoxyphenyl)-1,2,4-oxadiazol-5-yl]-2-methylphenyl}-2-methylpyridine] yielded an EC50 of 0.341 µM.
In the case of COc1ccc(F)cc1-c1noc(-c2ccc(N3CCCCC3C)nc2)n1 (stereo not shown) [Compound I75, 5-[3-(5-fluoro-2-methoxyphenyl)-1,2,4-oxadiazol-5-yl]-2-(2-methylpiperidin-1-yl)pyridine], the EC50 is reported as 1.19 µM.
Work on COCC1CCCN1c1ncc(-c2nc(-c3cc(F)ccc3OC)no2)cc1C (stereo not shown) [Compound I76, 5-[3-(5-fluoro-2-methoxyphenyl)-1,2,4-oxadiazol-5-yl]-2-[2-(methoxymethyl)pyrrolidin-1-yl]-3-methylpyridine] yielded an EC50 of 0.522 µM.
With COc1ccc(F)cc1-c1noc(-c2ccc(-c3ccccc3C)c(C(=O)O)c2)n1 [Compound I79, 4-[3-(5-fluoro-2-methoxyphenyl)-1,2,4-oxadiazol-5-yl]-2′-methylbiphenyl-2-carboxylic acid] the EC50 was 0.657 µM.
